{"source": "patent US20130158132A1", "about": "“Formulation Solution Adapted To Prolong Plasma Times Of Drugs In Mammals Including Humans” (priority 2011, published 2013)", "key": {"[1]": {"assay": "Decoquinate concentration in mouse plasma and liver, with and without prolongation solution", "type": "in vivo", "design": "concentration of the drug in plasma / concentration of the drug in liver: unit not given here", "details": "mice; for concentration of the drug in liver / concentration of the drug in plasma: 0.5 ml injected", "method": "(§1) The following examples used laboratory rats and mice.\nDecoquinate solution was mixed with two solutions: one with the prolongation solution of Example 1 and one without the prolongation solution. Each solution contained an identical and normal dosage of the drug. In both cases, 0.5 ml of solution was injected into mice of approximately identical weight. The concentration of the drug in plasma and liver was chected by high performance then layer chromatography in mouse liver and plasma."}, "[2]": {"details": "single 5 mg dose; cited from earlier work"}, "[3]": {"assay": "Glipizide serum level in rats after one-time administration", "type": "in vivo", "details": "rat, other: injected, about 0.25 mg in 3 ml prolongation solution of Example 1, injected", "method": "as §1\nSerum testing was conducted after one-time initial administration."}, "[4]": {"details": "rat, in vivo, 24 h"}, "[5]": {"details": "after 24 hours; cited from earlier work"}, "in vivo": {"assay": "in vivo", "details": "rat, Quinine serum level"}, "[6]": {"assay": "Rifampicin serum level in rats after one-time administration", "type": "in vivo", "details": "for concentration at 14 h / concentration at 32 h: serum", "method": "as §1\nSerum testing was conducted after one-time initial administration to rats. The Rifampicin level remained:\nControl test using water alone on 8 mg/rat. […] Thus, the prolongation solution is effective at reduced drug administration levels."}, "[7]": {"details": "human, single 600 mg dose; cited from earlier work"}, "[8]": {"details": "single 2.0 gram dose, cited from earlier work"}, "[9]": {"details": "NE-No Prolongation Solution, 0.5 hours"}, "[10]": {"details": "NE-No Prolongation Solution, 1 hour"}, "[11]": {"details": "NE-No Prolongation Solution, 2 hours"}, "[12]": {"details": "NE-No Prolongation Solution, 4 hours"}, "[13]": {"details": "NE-No Prolongation Solution, 8 hours"}, "[14]": {"details": "NE-No Prolongation Solution, 24 hours"}, "[15]": {"details": "PF-Prolongation Solution of Example 1, 0.5 hours"}, "[16]": {"details": "PF-Prolongation Solution of Example 1, 1 hour"}, "[17]": {"details": "PF-Prolongation Solution of Example 1, 2 hours"}, "[18]": {"details": "PF-Prolongation Solution of Example 1, 4 hours"}, "[19]": {"details": "PF-Prolongation Solution of Example 1, 8 hours"}, "[20]": {"details": "PF-Prolongation Solution of Example 1, 24 hours"}, "[21]": {"details": "rat, about 18 mg in 3 ml prolongation solution of Example 1, one-time administration"}, "[22]": {"details": "about 8 mg/rat with prolongation solution"}}}
{"compound": "CCCCCCCCCCOc1cc2c(O)c(C(=O)OCC)cnc2cc1OCC", "note": "[Decoquinate]", "values": [{"measurement": "concentration of the drug in liver", "setting": "[1]; [9]", "result": 313860}, {"measurement": "concentration of the drug in plasma", "setting": "[1]; [9]", "result": 25565}, {"measurement": "concentration of the drug in liver", "setting": "[1]; [10]", "result": 430820}, {"measurement": "concentration of the drug in plasma", "setting": "[1]; [10]", "result": 49911}, {"measurement": "concentration of the drug in liver", "setting": "[1]; [11]", "result": 317950}, {"measurement": "concentration of the drug in plasma", "setting": "[1]; [11]", "result": 43941}, {"measurement": "concentration of the drug in liver", "setting": "[1]; [12]", "result": 323180}, {"measurement": "concentration of the drug in plasma", "setting": "[1]; [12]", "result": 35427}, {"measurement": "concentration of the drug in liver", "setting": "[1]; [13]", "result": 177470}, {"measurement": "concentration of the drug in plasma", "setting": "[1]; [13]", "result": 25131}, {"measurement": "concentration of the drug in liver", "setting": "[1]; [14]", "result": 7014}, {"measurement": "concentration of the drug in plasma", "setting": "[1]; [14]", "result": 697}, {"measurement": "concentration of the drug in liver", "setting": "[1]; [15]", "result": 149675}, {"measurement": "concentration of the drug in plasma", "setting": "[1]; [15]", "result": 15213}, {"measurement": "concentration of the drug in liver", "setting": "[1]; [16]", "result": 223565}, {"measurement": "concentration of the drug in plasma", "setting": "[1]; [16]", "result": 24638}, {"measurement": "concentration of the drug in liver", "setting": "[1]; [17]", "result": 191725}, {"measurement": "concentration of the drug in plasma", "setting": "[1]; [17]", "result": 27350}, {"measurement": "concentration of the drug in liver", "setting": "[1]; [18]", "result": 219615}, {"measurement": "concentration of the drug in plasma", "setting": "[1]; [18]", "result": 29213}, {"measurement": "concentration of the drug in liver", "setting": "[1]; [19]", "result": 181015}, {"measurement": "concentration of the drug in plasma", "setting": "[1]; [19]", "result": 27882}, {"measurement": "concentration of the drug in liver", "setting": "[1]; [20]", "result": 5549}, {"measurement": "concentration of the drug in plasma", "setting": "[1]; [20]", "result": 457}, {"measurement": "drop of Decoquinate level between 1 and 8 hours in plasma", "setting": "[1]; no prolongation solution", "result": 50, "unit": "%"}, {"measurement": "drop of Decoquinate level between 1 and 8 hours in liver", "setting": "[1]; no prolongation solution, compared with the 50% drop in plasma", "result": "almost as much"}, {"measurement": "change in the level of Decoquinate between 1 and 8 hours", "setting": "[1]; prolongation solution used", "result": "relatively little change"}, {"measurement": "change of concentration of drug in plasma and liver for eight hours", "setting": "[1]; using the prolongation solution, compared to control", "result": "did not change"}]}
{"compound": "Cc1cnc(C(=O)NCCc2ccc(S(=O)(=O)NC(=O)NC3CCCCC3)cc2)cn1", "note": "[Glipizide]", "values": [{"measurement": "Peak serum level of glipizide", "setting": "[2]", "result": "0.1 to 0.5", "unit": "µg/mL"}, {"measurement": "time of peak serum level post dose", "setting": "[2]", "result": 1.6, "unit": "h"}, {"measurement": "concentration at 26 h", "setting": "[3]; 26 hours", "result": 570, "unit": "ng/mL"}, {"measurement": "concentration at 52 h", "setting": "[3]; 52 hours", "result": 1400, "unit": "ng/mL"}]}
{"compound": "C=C[C@H]1C[N@@]2CC[C@H]1C[C@H]2[C@H](O)c1ccnc2ccc(OC)cc12", "note": "[Quinine]", "values": [{"measurement": "Quinine serum level", "setting": "[4]", "result": 2400, "unit": "ng/mL"}, {"measurement": "plasma level after termination of quinine therapy", "setting": "[5]", "result": "barely detectable"}, {"measurement": "concentration at 45 min", "setting": "in vivo", "result": 4600, "unit": "ng/mL"}, {"measurement": "concentration at 4 h", "setting": "in vivo", "result": 3000, "unit": "ng/mL"}, {"measurement": "concentration at 9 h", "setting": "in vivo", "result": 1800, "unit": "ng/mL"}, {"measurement": "concentration at 13 h", "setting": "in vivo", "result": 1600, "unit": "ng/mL"}, {"measurement": "concentration at 15 h", "setting": "in vivo", "result": 2100, "unit": "ng/mL"}, {"measurement": "concentration at 16 h", "setting": "in vivo", "result": 230, "unit": "ng/mL"}, {"measurement": "concentration at 24 h", "setting": "in vivo", "result": 1400, "unit": "ng/mL"}]}
{"compound": "CO[C@H]1/C=C/O[C@@]2(C)Oc3c(C)c(O)c4c(O)c(c(/C=N/N5CCN(C)CC5)c(O)c4c3C2=O)NC(=O)/C(C)=C\\C=C\\[C@H](C)[C@H](O)[C@@H](C)[C@@H](O)[C@@H](C)[C@H](OC(C)=O)[C@@H]1C", "note": "[Rifampicin]", "values": [{"measurement": "Rifampicin serum level", "setting": "[6]; control using water alone, 8 mg/rat, after 14 hours", "result": "not being detected"}, {"measurement": "concentration at 14 h", "setting": "[6]; [21]", "result": 19000, "unit": "ng/mL"}, {"measurement": "concentration at 32 h", "setting": "[6]; [21]", "result": 3500, "unit": "ng/mL"}, {"measurement": "concentration at 14 h", "setting": "[6]; [22]", "result": 14000, "unit": "ng/mL"}, {"measurement": "concentration at 32 h", "setting": "[6]; [22]", "result": 8500, "unit": "ng/mL"}, {"measurement": "Peak plasma levels of Rifampicin", "setting": "[7]", "result": "3 to 13", "unit": "µg/mL"}, {"measurement": "time of peak plasma level post dose", "setting": "[7]", "result": "approximately 1.8 hours"}]}
{"compound": "Cc1noc(NS(=O)(=O)c2ccc(N)cc2)c1C", "note": "[sulfisoxazole]", "values": [{"measurement": "mean time of peak plasma concentration", "setting": "[8]", "result": 2.5, "unit": "h"}, {"measurement": "original dose excreted in the urine", "setting": "[8]; within 48 hours", "result": "About 97%"}]}
